In ChEMBL document CHEMBL1201861, “Genomics of Drug Sensitity in Cancer screening data, Wellcome Trust Sanger Institute”:

Legend:
Experiment in all cases: cells
BB49-HNC = type: functional, cell-based, Homo sapiens; settings: Homo sapiens, BB49-HNC;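 also: cell viability assay read-out, reported as inhibition of BB49-HNC cell growth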
Description: SANGER: Inhibition of human BB49-HNC cell growth in a cell viability assay.

NCI-H1650 = type: functional, cell-based, Homo sapiens; settings: Homo sapiens, NCI-H1650;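 also: growth inhibition of human NCI-H1650 cells measured by a cell viability assay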
Description: SANGER: Inhibition of human NCI-H1650 cell growth in a cell viability assay.

SW684 = type: functional, cell-based, Homo sapiens; settings: Homo sapiens, SW684;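 also: growth inhibition of human SW684 cells, measured by a cell viability assay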
Description: SANGER: Inhibition of human SW684 cell growth in a cell viability assay.

KM-H2 = type: functional, cell-based; settings: Homo sapiens;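 also: growth inhibition of KM-H2 cells, read out by a cell viability assay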
Description: SANGER: Inhibition of human KM-H2 cell growth in a cell viability assay.

GR-ST = type: functional, cell-based; settings: Homo sapiens
Description: SANGER: Inhibition of human GR-ST cell growth in a cell viability assay.

HuTu80 = type: functional, cell-based, Homo sapiens, HUTU-80; settings: Homo sapiens, HuTu80;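 also: growth inhibition of HuTu80 human cells, determined with a cell viability readout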
Description: SANGER: Inhibition of human HUTU-80 cell growth in a cell viability assay.

SiHa = type: functional, cell-based, Homo sapiens; settings: Homo sapiens, SiHa;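 also: Viability-based readout of growth inhibition in SiHa cells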
Description: SANGER: Inhibition of human SiHa cell growth in a cell viability assay.

ES5 = type: functional, cell-based, Homo sapiens; settings: Homo sapiens, ES5;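 also: growth inhibition of human ES5 cells, read out by a cell viability assay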
Description: SANGER: Inhibition of human ES5 cell growth in a cell viability assay.

KURAMOCHI = type: functional, cell-based; settings: Homo sapiens;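 also: growth inhibition of KURAMOCHI cells, read out with a cell viability assay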
Description: SANGER: Inhibition of human KURAMOCHI cell growth in a cell viability assay.

NCI-H2342 = type: functional, cell-based; settings: Homo sapiens;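 also: growth inhibition of the cancer cell line, determined with a cell viability assay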
Description: SANGER: Inhibition of human NCI-H2342 cell growth in a cell viability assay.

GB-1 = type: functional, cell-based, Homo sapiens; settings: Homo sapiens, GB-1;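 also: growth of GB-1 cells judged by a viability assay, IC50 marks the concentration inhibiting growth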
Description: SANGER: Inhibition of human GB-1 cell growth in a cell viability assay.

NOMO-1 = type: functional, cell-based; settings: Homo sapiens;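 also: growth inhibition of human NOMO-1 cells measured by a cell viability assay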
Description: SANGER: Inhibition of human NOMO-1 cell growth in a cell viability assay.

NCI-H1092 = type: functional, cell-based; settings: Homo sapiens;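 also: cell growth inhibition measured with a cell viability assay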
Description: SANGER: Inhibition of human NCI-H1092 cell growth in a cell viability assay.

MV4-11 = type: functional, cell-based, MV-4-11; settings: Homo sapiens;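 also: cell viability readout measuring growth inhibition of human MV-4-11 cells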
Description: SANGER: Inhibition of human MV-4-11 cell growth in a cell viability assay.

TE-6 = type: functional, cell-based, Homo sapiens; settings: Homo sapiens, TE-6;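 also: growth inhibition of TE-6 cells, read out with a cell viability assay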
Description: SANGER: Inhibition of human TE-6 cell growth in a cell viability assay.

SK-MEL-24 = type: functional, cell-based; settings: Homo sapiens;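 also: growth inhibition read out by a cell viability assay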
Description: SANGER: Inhibition of human SK-MEL-24 cell growth in a cell viability assay.

HuO-3N1 = type: functional, cell-based, Homo sapiens; settings: Homo sapiens, HuO-3N1;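 also: cell viability readout used to measure how strongly compounds suppress proliferation of human HuO-3N1 cells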
Description: SANGER: Inhibition of human HuO-3N1 cell growth in a cell viability assay.

NB5 = type: functional, cell-based, Homo sapiens; settings: Homo sapiens, NB5;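 also: growth inhibition of NB5 cells, read out as cell viability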
Description: SANGER: Inhibition of human NB5 cell growth in a cell viability assay.

RVH-421 = type: functional, cell-based, Homo sapiens; settings: Homo sapiens, RVH-421
Description: SANGER: Inhibition of human RVH-421 cell growth in a cell viability assay.

SW-620 = type: functional, cell-based, Homo sapiens; settings: Homo sapiens, SW-620;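 also: growth inhibition of human SW-620 cells, measured by a cell viability assay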
Description: SANGER: Inhibition of human SW620 cell growth in a cell viability assay.

CTB-1 = type: functional, cell-based; settings: Homo sapiens
Description: SANGER: Inhibition of human CTB-1 cell growth in a cell viability assay.

COLO-792 = type: functional, cell-based, Homo sapiens; settings: Homo sapiens, COLO-792
Description: SANGER: Inhibition of human COLO-792 cell growth in a cell viability assay.

LC-2-ad = type: functional, cell-based, Homo sapiens; settings: Homo sapiens, LC-2-ad;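 also: growth inhibition of human LC-2-ad cells, read out with a cell viability assay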
Description: SANGER: Inhibition of human LC-2-ad cell growth in a cell viability assay.

LN-405 = type: functional, cell-based, Homo sapiens; settings: Homo sapiens, LN-405
Description: SANGER: Inhibition of human LN-405 cell growth in a cell viability assay.

MC116 = type: functional, cell-based; settings: Homo sapiens;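 also: growth inhibition of MC116 cells, read out with a cell viability assay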
Description: SANGER: Inhibition of human MC116 cell growth in a cell viability assay.

KG-1 = type: functional, cell-based; settings: Homo sapiens;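 also: growth inhibition of KG-1 cells, read out by a cell viability assay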
Description: SANGER: Inhibition of human KG-1 cell growth in a cell viability assay.

KYSE-410 = type: functional, cell-based, Homo sapiens; settings: Homo sapiens, KYSE-410;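 also: growth inhibition of KYSE-410 cells, measured through a cell viability readout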
Description: SANGER: Inhibition of human KYSE-410 cell growth in a cell viability assay.

MSTO-211H = type: functional, cell-based, Homo sapiens; settings: Homo sapiens, MSTO-211H
Description: SANGER: Inhibition of human MSTO-211H cell growth in a cell viability assay.

SF-126 = type: functional, cell-based, Homo sapiens; settings: Homo sapiens, SF-126;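 also: growth inhibition of human SF126 cells, read out with a cell viability assay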
Description: SANGER: Inhibition of human SF126 cell growth in a cell viability assay.

D-247MG = type: functional, cell-based, Homo sapiens; settings: Homo sapiens, D-247MG
Description: SANGER: Inhibition of human D-247MG cell growth in a cell viability assay.

KARPAS-45 = type: functional, cell-based; settings: Homo sapiens;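 also: inhibition of cell line growth, read out through a viability assay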
Description: SANGER: Inhibition of human KARPAS-45 cell growth in a cell viability assay.

8305C = type: functional, cell-based, Homo sapiens; settings: Homo sapiens, 8305C
Description: SANGER: Inhibition of human 8305C cell growth in a cell viability assay.

EGI-1 = type: functional, cell-based, Homo sapiens; settings: Homo sapiens, EGI-1;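 also: cell viability readout used to gauge growth inhibition of EGI-1 cells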
Description: SANGER: Inhibition of human EGI-1 cell growth in a cell viability assay.

TGBC24TKB = type: functional, cell-based, Homo sapiens; settings: Homo sapiens, TGBC24TKB;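 also: growth inhibition of human TGBC24TKB cells, read out with a cell viability assay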
Description: SANGER: Inhibition of human TGBC24TKB cell growth in a cell viability assay.

RMG-I = type: functional, cell-based, Homo sapiens; settings: Homo sapiens, RMG-I;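 also: growth inhibition of human RMG-I cells, read out with a cell viability assay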
Description: SANGER: Inhibition of human RMG-I cell growth in a cell viability assay.

DJM-1 = type: functional, cell-based, Homo sapiens; settings: Homo sapiens, DJM-1;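 also: growth inhibition of human DJM-1 cells, read out by a cell viability assay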
Description: SANGER: Inhibition of human DJM-1 cell growth in a cell viability assay.

Daoy = type: functional, cell-based, Homo sapiens; settings: Homo sapiens, Daoy;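 also: daoy cell growth inhibition, read out as cell viability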
Description: SANGER: Inhibition of human Daoy cell growth in a cell viability assay.

G-402 = type: functional, cell-based, Homo sapiens; settings: Homo sapiens, G-402
Description: SANGER: Inhibition of human G-402 cell growth in a cell viability assay.

SW 962 = type: functional, cell-based, Homo sapiens; settings: Homo sapiens, SW 962;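 also: growth inhibition of human SW962 cells, read out by a cell viability assay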
Description: SANGER: Inhibition of human SW962 cell growth in a cell viability assay.

LB831-BLC = type: functional, cell-based, Homo sapiens; settings: Homo sapiens, LB831-BLC;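 also: growth inhibition of LB831-BLC cells, read out with a cell viability assay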
Description: SANGER: Inhibition of human LB831-BLC cell growth in a cell viability assay.

GCT = type: functional, cell-based, Homo sapiens; settings: Homo sapiens, GCT;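 also: GCT cell line proliferation inhibition, read out with a cell viability assay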
Description: SANGER: Inhibition of human GCT cell growth in a cell viability assay.

OAW-28 = type: functional, cell-based, Homo sapiens; settings: Homo sapiens, OAW-28;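 also: growth inhibition of OAW-28 cells, read out with a cell viability assay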
Description: SANGER: Inhibition of human OAW-28 cell growth in a cell viability assay.

ETK-1 = type: functional, cell-based, Homo sapiens; settings: Homo sapiens, ETK-1;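 also: growth inhibition of human ETK-1 cells, read out with a cell viability assay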
Description: SANGER: Inhibition of human ETK-1 cell growth in a cell viability assay.

UACC-893 = type: functional, cell-based, Homo sapiens; settings: Homo sapiens, UACC-893
Description: SANGER: Inhibition of human UACC-893 cell growth in a cell viability assay.

NCI-H526 = type: functional, cell-based; settings: Homo sapiens;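 also: growth inhibition of the human NCI-H526 cell line, measured by a cell viability assay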
Description: SANGER: Inhibition of human NCI-H526 cell growth in a cell viability assay.

COLO-320-HSR = type: functional, cell-based; settings: Homo sapiens;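 also: growth inhibition of COLO-320-HSR cells, determined with a cell viability assay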
Description: SANGER: Inhibition of human COLO-320-HSR cell growth in a cell viability assay.

JAR = type: functional, cell-based, Homo sapiens; settings: Homo sapiens, JAR;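 also: growth inhibition of human JAR cells determined with a cell viability assay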
Description: SANGER: Inhibition of human JAR cell growth in a cell viability assay.

NB7 = type: functional, cell-based; settings: Homo sapiens;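 also: growth inhibition of NB7 cells, read out with a cell viability assay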
Description: SANGER: Inhibition of human NB7 cell growth in a cell viability assay.

SCC-15 = type: functional, cell-based, Homo sapiens; settings: Homo sapiens, SCC-15;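 also: growth inhibition of SCC-15 cells, read out with a cell viability assay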
Description: SANGER: Inhibition of human SCC-15 cell growth in a cell viability assay.

DBTRG-05MG = type: functional, cell-based, Homo sapiens; settings: Homo sapiens, DBTRG-05MG;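 also: cell viability assay measuring growth inhibition of human DBTRG-05MG cells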
Description: SANGER: Inhibition of human DBTRG-05MG cell growth in a cell viability assay.

BT-20 = type: functional, cell-based, Homo sapiens; settings: Homo sapiens, BT-20;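 also: cell viability assay measuring suppression of growth in human BT-20 cells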
Description: SANGER: Inhibition of human BT-20 cell growth in a cell viability assay.

LoVo = type: functional, cell-based; settings: Homo sapiens;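 also: growth inhibition of human LoVo cells, read out with a cell viability assay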
Description: SANGER: Inhibition of human LoVo cell growth in a cell viability assay.

MOLT-16 = type: functional, cell-based; settings: Homo sapiens;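 also: growth inhibition of human MOLT-16 cells, read out with a cell viability assay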
Description: SANGER: Inhibition of human MOLT-16 cell growth in a cell viability assay.

Q: How did the IC50 (BB49-HNC) turn out when `O=C(NOCC1CC1)c1ccc(F)c(F)c1Nc1ccc(I)cc1Cl` [CI-1040] was run?
A: Its IC50 is over 10 µM.

Q: What about the IC50 (NCI-H1650) of the same compound?
A: Its IC50 is over 10 µM.

Q: What about the IC50 (SW684) of the same compound?
A: Its IC50 is over 10 µM.

Q: And the IC50 (KM-H2)?
A: The IC50 was over 10 µM.

Q: What about the IC50 (GR-ST) of the same compound?
A: Its IC50 is 7.4 µM.

Q: What about the IC50 (HuTu80) of the same compound?
A: The IC50 was over 10 µM.

Q: What about the IC50 (SiHa) of the same compound?
A: The IC50 was over 10 µM.

Q: And the IC50 (ES5)?
A: Its IC50 is over 10 µM.

Q: And the IC50 (KURAMOCHI)?
A: The IC50 was over 10 µM.

Q: What about the IC50 (NCI-H2342) of the same compound?
A: Its IC50 is over 10 µM.

Q: And the IC50 (GB-1)?
A: Its IC50 is over 10 µM.

Q: What about the IC50 (NOMO-1) of the same compound?
A: Its IC50 is 0.257 µM.

Q: And the IC50 (NCI-H1092)?
A: The IC50 was over 10 µM.

Q: And the IC50 (MV4-11)?
A: Its IC50 is 6.23 µM.

Q: What about the IC50 (TE-6) of the same compound?
A: The IC50 was over 10 µM.

Q: What about the IC50 (SK-MEL-24) of the same compound?
A: The IC50 was 0.328 µM.

Q: What about the IC50 (HuO-3N1) of the same compound?
A: Its IC50 is over 10 µM.

Q: And the IC50 (NB5)?
A: Its IC50 is 4.6 µM.

Q: And the IC50 (RVH-421)?
A: The IC50 was 0.972 µM.

Q: What about the IC50 (SW-620) of the same compound?
A: The IC50 was 1.14 µM.

Q: What about the IC50 (CTB-1) of the same compound?
A: Its IC50 is 3.47 µM.

Q: And the IC50 (COLO-792)?
A: Its IC50 is 2.84 µM.

Q: What about the IC50 (LC-2-ad) of the same compound?
A: Its IC50 is over 10 µM.

Q: And the IC50 (LN-405)?
A: The IC50 was over 10 µM.

Q: And the IC50 (MC116)?
A: The IC50 was over 10 µM.

Q: And the IC50 (KG-1)?
A: The IC50 was 0.307 µM.

Q: What about the IC50 (KYSE-410) of the same compound?
A: The IC50 was over 10 µM.

Q: And the IC50 (MSTO-211H)?
A: Its IC50 is 9.96 µM.

Q: And the IC50 (SF-126)?
A: Its IC50 is over 10 µM.

Q: What about the IC50 (D-247MG) of the same compound?
A: The IC50 was over 10 µM.

Q: And the IC50 (KARPAS-45)?
A: The IC50 was over 10 µM.

Q: And the IC50 (8305C)?
A: Its IC50 is 7.1 µM.

Q: And the IC50 (EGI-1)?
A: Its IC50 is 3.61 µM.

Q: What about the IC50 (TGBC24TKB) of the same compound?
A: The IC50 was over 10 µM.

Q: And the IC50 (RMG-I)?
A: The IC50 was over 10 µM.

Q: And the IC50 (DJM-1)?
A: Its IC50 is over 10 µM.

Q: What about the IC50 (Daoy) of the same compound?
A: Its IC50 is over 10 µM.

Q: What about the IC50 (G-402) of the same compound?
A: Its IC50 is over 10 µM.

Q: And the IC50 (SW 962)?
A: The IC50 was over 10 µM.

Q: What about the IC50 (LB831-BLC) of the same compound?
A: Its IC50 is over 10 µM.

Q: What about the IC50 (GCT) of the same compound?
A: The IC50 was over 10 µM.

Q: And the IC50 (OAW-28)?
A: Its IC50 is over 10 µM.

Q: And the IC50 (ETK-1)?
A: Its IC50 is over 10 µM.

Q: What about the IC50 (UACC-893) of the same compound?
A: Its IC50 is over 10 µM.

Q: What about the IC50 (NCI-H526) of the same compound?
A: Its IC50 is over 10 µM.

Q: What about the IC50 (COLO-320-HSR) of the same compound?
A: The IC50 was over 10 µM.

Q: What about the IC50 (JAR) of the same compound?
A: The IC50 was over 10 µM.

Q: And the IC50 (NB7)?
A: The IC50 was 2.34 µM.

Q: What about the IC50 (SCC-15) of the same compound?
A: Its IC50 is over 10 µM.

Q: What about the IC50 (DBTRG-05MG) of the same compound?
A: The IC50 was 8.75 µM.

Q: And the IC50 (BT-20)?
A: Its IC50 is over 10 µM.

Q: And the IC50 (LoVo)?
A: Its IC50 is 1.46 µM.

Q: What about the IC50 (MOLT-16) of the same compound?
A: Its IC50 is over 10 µM.

Q: Which results are given for `O=c1cc(-c2cccc3c2Sc2ccccc2S3)oc(N2CCOCC2)c1` [KU-55933]?
A: IC50 (BB49-HNC): > 10 µM; IC50 (NCI-H1650): > 10 µM; IC50 (SW684): > 10 µM; IC50 (KM-H2): > 10 µM; IC50 (GR-ST): > 10 µM; IC50 (HuTu80): > 10 µM; IC50 (SiHa): > 10 µM; IC50 (ES5): > 10 µM; IC50 (KURAMOCHI): > 10 µM; IC50 (NCI-H2342): > 10 µM; IC50 (GB-1): > 10 µM; IC50 (NOMO-1): > 10 µM; IC50 (NCI-H1092): > 10 µM; IC50 (MV4-11): > 10 µM; IC50 (TE-6): > 10 µM; IC50 (SK-MEL-24): > 10 µM; IC50 (HuO-3N1): 4.17 µM; IC50 (NB5): > 10 µM; IC50 (RVH-421): > 10 µM; IC50 (SW-620): > 10 µM; IC50 (CTB-1): > 10 µM; IC50 (COLO-792): > 10 µM; IC50 (LC-2-ad): > 10 µM; IC50 (LN-405): > 10 µM; IC50 (MC116): > 10 µM; IC50 (KG-1): > 10 µM; IC50 (KYSE-410): > 10 µM; IC50 (MSTO-211H): > 10 µM; IC50 (SF-126): > 10 µM; IC50 (D-247MG): > 10 µM; IC50 (8305C): > 10 µM; IC50 (EGI-1): > 10 µM; IC50 (TGBC24TKB): > 10 µM; IC50 (RMG-I): > 10 µM; IC50 (DJM-1): > 10 µM; IC50 (Daoy): > 10 µM; IC50 (G-402): > 10 µM; IC50 (SW 962): > 10 µM; IC50 (LB831-BLC): > 10 µM; IC50 (GCT): > 10 µM; IC50 (OAW-28): > 10 µM; IC50 (ETK-1): > 10 µM; IC50 (UACC-893): > 10 µM; IC50 (NCI-H526): > 10 µM; IC50 (COLO-320-HSR): > 10 µM; IC50 (JAR): > 10 µM; IC50 (NB7): > 10 µM; IC50 (SCC-15): > 10 µM; IC50 (DBTRG-05MG): > 10 µM; IC50 (BT-20): > 10 µM; IC50 (LoVo): 6.93 µM; IC50 (MOLT-16): > 10 µM
